Source: PMC11568214, “The impact of 9-azaglycophymine and phenylguanidine derivatives on the proliferation of various breast cancer cell lines in vitro and in vivo” (Scientific Reports, 2024)

Experiments:
[1] = Monitoring of systemic toxicity in the 4T1 in vivo study (body mass, behavior, fur, food intake); design: species or system BALB/c mice; conditions: 5 and 20 mg/kg i.p.
Method: (§1) On day 6, the mice were assigned to the study groups using a stratified randomization approach, ensuring that the mean tumor volumes were as similar as possible across all groups. The control group was treated with 400 µL of vehicle solution, the low dose compound 19 group with 5 mg/kg in 400 µL of vehicle, and the high dose group with […] in 400 µL of vehicle. The vehicle was 4% (v/v) DMSO in PBS, and the administration route was intraperitoneal (i.p.). The animals were treated daily on days 6–10 (starting from the day when tumors became palpable), 13–17 and day 20. Animals were visually examined daily, and urine samples were collected on the first and last day of treatment and analyzed by Multistix urine test stripes (Siemens Healthineers, Erlangen, Germany). On day 21 of the experiment, the mice were sacrificed using cervical dislocation. Following the sacrifice, the tumor diameters were measured using a caliper. The tumor volume (V) was then calculated using the formula V = L*W^2*0.52[36], where L represents the longest diameter and W the shortest diameter of the tumor.

4T1 = assay: Cell division analysis, CFSE staining, flow cytometry; assay type: cell-based, mouse; design: key: ↑: induction; ↓: inhibition; ↔: no effect; conditions: 4T1, IC50 for 72 h
Method: (§2) The cells were stained with CFSE (1 µM) in PBS containing 0.1% (v/v) FCS for 10 min. Afterwards, cells were washed with PBS, and then seeded with growth medium in 6-well plates. The plates were incubated for 24 h under standard culture conditions. […] Subsequently, the cells were detached using 0.5 mL of 0.05% (v/v) Trypsin–EDTA for 3 min at 37 °C. Then trypsin was deactivated by the addition of FCS-containing growth medium. The cell suspensions were collected, centrifuged for 3 min at 800 rpm, and the cell pellets were resuspended in fresh PBS. Finally, the samples were analyzed by using flow cytometry.

HCC1937 [2] = assay: as above; assay type: cell-based, human; design: key: ↑: induction; ↓: inhibition; ↔: no effect; conditions: HCC1937, IC50 for 72 h
Method: as §2

MDA-MB-468 [3] = assay: as above; assay type: cell-based, human; design: key: ↑: induction; ↓: inhibition; ↔: no effect; conditions: MDA-MB-468, IC50 for 72 h
Method: as §2

BT-474 [4] = assay: as above; assay type: cell-based, human; design: key: ↑: induction; ↓: inhibition; ↔: no effect; conditions: BT-474, IC50 for 72 h
Method: as §2

MCF-7 [5] = assay: as above; assay type: cell-based, human; design: key: ↑: induction; ↓: inhibition; ↔: no effect; conditions: MCF-7, IC50 for 72 h
Method: as §2

[6] = system: 4T1 mouse breast cancer cells (TNBC); assay: Syngeneic orthotopic 4T1 breast cancer model in BALB/c mice, tumor volume; assay type: in vivo
Source text: Compound 19 was selected to be tested against a syngeneic breast cancer model induced by orthotopic inoculation of 4T1 mouse breast cancer cells (TNBC) into BALB/c mice. In that exploratory study, we aimed to investigate for the first time a proposed anticancer efficacy of that compound. For that purpose, three groups were included in the study, each comprising eight animals. The resulting total number of 24 animals aimed to avoid under- or overpowering of the study. The animals were kept under standard laboratory conditions with an ad libitum regime for food and water intake. 5 × 10^4 of 4T1 cells in 50 µL PBS were inoculated in the fourth right mammary fat pad of female mice at day 0. Anesthesia was induced using a combination of ketamine and xylazine at doses of 60 mg/kg and 7.5 mg/kg, respectively.
as §1

HCC1937 [7] = assay: Autophagy induction, acridine orange staining, flow cytometry; assay type: cell-based, human; design: key: ↑: induction; ↓: inhibition; ↔: no effect; conditions: HCC1937, IC50 for 72 h
Method: (§3) Cells were seeded in 6-well plates and incubated for 24 h under standard culture conditions. […] For the analyses of autophagy induction, the cell suspension was centrifuged for 3 min at 800 rpm, and the cell pellet was stained with 1 mL of AO working solution (1 µg/mL of AO in growth medium). Cells were incubated for 15 min under standard culture conditions. The cell suspension was centrifuged for 3 min at 800 rpm, and the cell pellet was washed with 1 mL of fresh PBS. Finally, all samples were analyzed by using flow cytometry (FACSAria III, BD Biosciences, New Jersey, USA).

MDA-MB-468 [8] = assay: as above; assay type: cell-based, human; design: key: ↑: induction; ↓: inhibition; ↔: no effect; conditions: MDA-MB-468, IC50 for 72 h
Method: as §3

BT-474 [9] = assay: as above; assay type: cell-based, human; design: key: ↑: induction; ↓: inhibition; ↔: no effect; conditions: BT-474, IC50 for 72 h
Method: as §3

MCF-7 [10] = assay: as above; assay type: cell-based, human; design: key: ↑: induction; ↓: inhibition; ↔: no effect; conditions: MCF-7, IC50 for 72 h
Method: as §3

In the case of O=c1[nH]c(Nc2ccc([N+](=O)[O-])cc2)nc2ccccc12 [Compound 19, 4′-nitro-9-aza-glycophymine], the “acute systemic toxicity (body mass, behavioral changes, fur color and loss, food intake)” value [1] is reported as “absence of acute systemic toxicity”, the Proliferation (4T1) is reported as “↓” and the Proliferation (HCC1937 [2]) is reported as “↓”. For the same compound, the Proliferation (MDA-MB-468 [3]) was “↔”, the Proliferation (BT-474 [4]) was “↓” and the Proliferation (MCF-7 [5]) was “↔”. For the same compound, the “reduction of the tumor volume compared to the control group” value ([6]; 5 mg/kg i.p., day 21) was 30%, the median tumor volume ([6]; 5 mg/kg i.p., days 6–10, 13–17 and 20, measured day 21, control group 205 mm^3) was 143 mm^3 and the “tumor suppression at the higher dose” value ([6]; 20 mg/kg i.p., compared with 5 mg/kg) was “no further improvement of the tumor suppression was observed”. The Autophagy (HCC1937 [7]) was “↔”, the Autophagy (MDA-MB-468 [8]) was “↔” and the Autophagy (BT-474 [9]) was “↔”. For the same compound, the Autophagy (MCF-7 [10]) was “↔”.
